What was measured:
Assay type in all cases: in vivo
[1] = test system: Puccinia recondita f. sp. tritici (PUCCRT); assay: Brown Rust of Wheat Drop Line Test; settings: Drop Line Test 0.5 μg/leaf, 2 microliter drop on wheat leaf
Procedure: (§1) Brown Rust of Wheat (Puccinia recondita f. sp. tritici-PUCCRT) (1 DP) Wheat (cultivar Monon) was grown in plastic pots (6.2 cm×8.75 cm) containing 50 percent mineral soil, 50 percent Metro-Mix 360 (W.R Grace and Co.) until the seedlings were 10-20 cm tall. These plants were then sprayed to runoff with the test compound at a rate of 200 ppm. After 24 hours the test plants were inoculated by spraying with an aqueous spore suspension of Puccinia recondita f. sp. tritici (PUCCRT). The plants were then transferred to a dew chamber for 24 hours, then to the greenhouse until disease developed on the untreated control plants. In Example 3, a Drop Line Test was used, wherein instead of spraying the plant to runoff, a 2 microliter drop was placed on the wheat leaf and observed for disease control.

[2] = test system: Plasmopara viticola (PLASVI); assay: Downy Mildew of Grape one day protectant (1DP); settings: grape (Carignane), sprayed to runoff, rate 200 ppm
Procedure: Final treatment volumes were obtained by adding 0.1 percent aqueous Ethomeen T25 or 0.1 percent aqueous Spraymate X77+0.1 percent wt./vol. ammonium sulfate^+. Downy Mildew of Grape (Plasmopara viticola-[…]) Vines (cultivar Carignane) were grown from seed in a soilless peat-based potting mixture “Metro-Mix 360” (W.R Grace and Co.) until the seedlings were 10-20 cm tall. These plants were then sprayed to runoff with the test compound at a rate of 200 ppm. After 24 hours the test plants were inoculated by spraying with an aqueous sporangia suspension of Plasmopara viticola ([…]). The plants were then transferred to a dew chamber for 24 hours, then to the greenhouse until disease developed on the untreated control plants.

[3] = test system: Phytophthora infestans (PHYTIN); settings: 1DP, tomato (rutgers), sprayed to runoff, rate 200 ppm
[4] = test system: Puccinia recondita f. sp. tritici (PUCCRT); assay: Brown Rust of Wheat one day protectant (1DP); settings: wheat (Monon), sprayed to runoff, rate 200 ppm
Procedure: as §1, with “Final treatment volumes were obtained by adding 0.1 percent aqueous Ethomeen T25 or 0.1 percent aqueous Spraymate X77+0.1 percent wt./vol. ammonium sulfate^+. Brown” for “Brown”, “plants.” for “plants. In Example 3, a Drop Line Test was used, wherein instead of spraying the plant to runoff, a 2 microliter drop was placed on the wheat leaf and observed for disease control.”

[5] = test system: Leptosphaeria nodorum (LEPTNO); assay: Glume Blotch of Wheat one day protectant (1DP); settings: wheat (Yuma), sprayed to runoff, rate 200 ppm
Procedure: Final treatment volumes were obtained by adding 0.1 percent aqueous Ethomeen T25 or 0.1 percent aqueous Spraymate X77+0.1 percent wt./vol. ammonium sulfate^+. Glume Blotch of Wheat (Leptosphaeria nodorum-[…]) Wheat (cultivar Yuma) was grown in plastic pots (6.2 cm×8.75 cm) containing 50 percent mineral soil, 50 percent Metro-Mix 360 (W.R Grace and Co.). until the seedlings were 10-20 cm tall. These plants were then sprayed to runoff with the test compound at a rate of 200 ppm. After 24 hours the test plants were inoculated by spraying with an aqueous spore suspension of Leptosphaeria nodorum ([…]). The plants were then transferred to a dew chamber for 24 hours, then to the greenhouse until disease developed on the untreated control plants.

[6] = test system: Septoria tritici (SEPTTR); assay: Speckled Leaf Blotch of Wheat one day protectant (1DP); settings: wheat (Monon), sprayed to runoff, rate 200 ppm
Procedure: Final treatment volumes were obtained by adding 0.1 percent aqueous Ethomeen T25 or 0.1 percent aqueous Spraymate X77+0.1 percent wt./vol. ammonium sulfate^+. Speckled Leaf Blotch of Wheat (Septoria tritici-[…]) Wheat (cultivar Monon) was grown in plastic pots (6.2 cm×8.75 cm) containing 50 percent mineral soil, 50 percent Metro-Mix 360 (W.R Grace and Co.) until the seedlings were 10-20 cm tall. These plants were then sprayed to runoff with the test compound at a rate of 200 ppm. After 24 hours the test plants were inoculated by spraying with an aqueous spore suspension of Septoria tritici ([…]). The plants were then transferred to a dew chamber for 24 hours, then to the greenhouse until disease developed on the untreated control plants.

[7] = test system: Erysiphe graminis f. sp. tritici (ERYSGT); assay: Powdery Mildew of Wheat one day protectant (1DP); settings: wheat (Monon), sprayed to runoff, rate 200 ppm
Procedure: Final treatment volumes were obtained by adding 0.1 percent aqueous Ethomeen T25 or 0.1 percent aqueous Spraymate X77+0.1 percent wt./vol. ammonium sulfate^+. Powdery Mildew of Wheat (Erysiphe graminis f. sp. tritici-[…]) Wheat (cultivar Monon) was grown in plastic pots (6.2 cm×8.75 cm) containing 50 percent mineral soil, 50 percent Metro-Mix 360 (W.R Grace and Co.) until the seedlings were 10-20 cm tall. These plants were then sprayed to runoff with the test compound at a rate of 200 ppm. After 24 hours the test plants were inoculated with Erysiphe graminis f. sp. tritici ([…]) by dusting spores from stock plants onto the test plants. The plants were then transferred to the greenhouse until disease developed on the untreated control plants.

| SMILES | PUCCRT percent control of plant disease [1] | PLASVI percent control of plant disease [2] | PHYTIN percent control of plant disease [3] | PUCCRT percent control of plant disease [4] | LEPTNO percent control of plant disease [5] | SEPTTR percent control of plant disease [6] | ERYSGT percent control of plant disease [7] |
| --- | --- | --- | --- | --- | --- | --- | --- |
| C[C@H](N)C(=O)NC(CC(=O)O)(CC(=O)C1C(=O)N[C@@H](CN)C1=O)C(=O)O (some centres unmarked) [Compound III] | + (+ = 30-74 percent control of plant disease) | – | – | – | – | – | – |
| C[C@H](N)C(=O)NC(CC(=O)C1=C(O)[C@H](CN)NC1=O)(C(=O)O)C(=O)O [Compound II] | – | − (− = 0-29 percent control of plant disease) | + (+ = 30-74 percent control of plant disease) | ++ (++ = 75-100 percent control of plant disease) | − (− = 0-29 percent control of plant disease) | + (+ = 30-74 percent control of plant disease) | − (− = 0-29 percent control of plant disease) |
| NC[C@@H]1NC(=O)C(C(=O)CC(CC(=O)O)(NC(=O)[C@@H](N)CO)C(=O)O)=C1O (some centres unmarked) [Compound VI] | – | – | − (− = 0-29 percent control of plant disease) | ++ (++ = 75-100 percent control of plant disease) | − (− = 0-29 percent control of plant disease) | + (+ = 30-74 percent control of plant disease) | − (− = 0-29 percent control of plant disease) |
| NC[C@@H]1NC(=O)C(C(=O)CC(CC(=O)O)(NC(=O)[C@@H](N)CO)C(=O)O)=C1O (some centres unmarked) [Compound V] | – | – | + (+ = 30-74 percent control of plant disease) | ++ (++ = 75-100 percent control of plant disease) | − (− = 0-29 percent control of plant disease) | − (− = 0-29 percent control of plant disease) | − (− = 0-29 percent control of plant disease) |
